Assay results taken from patent EP4741392A1, “1H-PYRAZOLO[4,3-C]PYRIDINE COMPOUND, AND COMPOSITION THEREOF AND USE THEREOF” (Shenzhen TargetRx Co., Ltd., priority 2023, dated 2025).

Assays:
[1] = biological target: T1, BTK C481S (Homo sapiens, UniProt Q06187, C481S); assay: Kinase activity inhibition assay (HTRF TK Kit); format: biochemical
T1 construct: purchased Carna 08-547
Outline: (§1)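 Compounds are serially diluted and incubated with kinase, substrate and ATP at room temperature, the plate having been prepared on ice. Detection reagents are then added for 1 h, and the 665/620 nm fluorescence ratio is converted to percent inhibition for curve fitting.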

[2] = biological target: T2, BTK T474I (Homo sapiens, UniProt Q06187, T474I); assay: Kinase activity inhibition assay (HTRF TK Kit); format: biochemical
T2 construct: purchased SignalChem B10-12HH
Outline: as §1

[3] = biological target: T3, BTK kinase (Homo sapiens, UniProt Q06187); assay: Kinase activity inhibition assay (HTRF TK Kit); format: biochemical
T3 construct: purchased Invitrogen PV3587
Outline: as §1

[4] = test system: NIH/3T3 BTK C481S cells; assay: Phosphor-BTK(Y223) assay, adherent cells; format: cell-based; settings: Mus musculus, NIH3T3, phosphorylated BTK Y223, NIH/3T3 BTK C481S cells; read-out: NIH/3T3 BTK-C481S pBTK
Outline: (§2)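 NIH/3T3 cells expressing WT or C481S BTK were pretreated with compound for 0.5 h at 37 °C, then stimulated with 1 mM Na3VO4 (final) for 2 h. Lysates were assayed by HTRF for p-BTK Y223 using the 665/620 nm ratio. IC50 was obtained by nonlinear fit of % inhibition versus 0.5% DMSO control.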

[5] = test system: NIH/3T3 BTK WT cells; assay: Phosphor-BTK(Y223) assay, adherent cells; format: cell-based; settings: Mus musculus, NIH3T3, phosphorylated BTK Y223, NIH/3T3 BTK WT cells; read-out: NIH/3T3 BTK-WT pBTK
Outline: as §2

T2 sequence (Q06187 whole entry T474I): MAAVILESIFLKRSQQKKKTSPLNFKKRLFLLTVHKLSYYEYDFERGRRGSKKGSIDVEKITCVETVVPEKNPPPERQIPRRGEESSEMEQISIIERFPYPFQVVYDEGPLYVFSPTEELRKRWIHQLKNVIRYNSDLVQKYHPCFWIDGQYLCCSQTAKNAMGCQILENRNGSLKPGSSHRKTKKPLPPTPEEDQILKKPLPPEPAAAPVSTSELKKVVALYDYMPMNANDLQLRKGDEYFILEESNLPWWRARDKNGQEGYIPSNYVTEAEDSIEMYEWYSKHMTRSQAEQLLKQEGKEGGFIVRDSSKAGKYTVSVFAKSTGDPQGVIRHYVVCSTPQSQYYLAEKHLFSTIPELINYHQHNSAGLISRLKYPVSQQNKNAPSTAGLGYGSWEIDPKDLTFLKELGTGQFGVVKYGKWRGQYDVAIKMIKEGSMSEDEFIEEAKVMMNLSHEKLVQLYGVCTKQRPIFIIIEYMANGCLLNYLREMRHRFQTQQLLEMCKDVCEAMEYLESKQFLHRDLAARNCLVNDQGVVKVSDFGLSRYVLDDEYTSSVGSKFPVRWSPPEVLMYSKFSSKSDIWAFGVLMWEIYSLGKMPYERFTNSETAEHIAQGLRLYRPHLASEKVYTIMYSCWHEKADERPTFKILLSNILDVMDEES
T3 sequence (Q06187 whole entry): as the sequence (Q06187 whole entry T474I) above, with I474T counted along it
T1 sequence (Q06187 whole entry C481S): as the sequence (Q06187 whole entry T474I) above, with I474T, C481S counted along it

Q: How did the IC50 [1] turn out when `CCN1CCn2nc(-c3cnc(-c4ccc(CNC(=O)c5cc(F)ccc5OC)cc4)c4c(N)n[nH]c34)cc2C1` [Example 72, N-(4-(3-amino-7-(5-ethyl-4,5,6,7-tetrahydropyrazolo[1,5-a]pyrazin-2-yl)-1H-pyrazolo[4,3-c]pyridin-4-yl)benzyl)-5-fluoro-2-methoxybenzamide] was run?
A: ≤ 1 nM

Q: What about the IC50 [2] of the same molecule?
A: 5 to 50 nM

Q: And the IC50 [3]?
A: ≤ 1 nM

Q: And the IC50 [4]?
A: ≤ 5 nM

Q: What about the IC50 [5] of the same molecule?
A: ≤ 5 nM

Q: Which IC50 [1] does the source give for `COc1ccc(F)cc1C(=O)NCc1ccc(-c2nc(C(C)C(F)(F)F)c(-c3cc(C)[nH]n3)c3[nH]nc(N)c23)cc1` (stereo not drawn) [Example 9, N-(4-(3-amino-7-(5-methyl-1H-pyrazol-3-yl)-6-(1,1,1-trifluoropropan-2-yl)-1H-pyrazolo[4,3-c]pyridin-4-yl)benzyl)-5-fluoro-2-methoxybenzamide] here?
A: 5 to 50 nM

Q: What about the IC50 [2] of the same molecule?
A: 50 to 500 nM

Q: And the IC50 [3]?
A: 1 to 5 nM

Q: And the IC50 [4]?
A: 10 to 50 nM

Q: And the IC50 [5]?
A: 5 to 10 nM

Q: With `COc1ccc(F)cc1C(=O)NCc1ccc(-c2ncc(-c3ccc(C)cn3)c3[nH]nc(N)c23)cc1` [Example 37, N-(4-(3-amino-7-(5-methylpyridin-2-yl)-1H-pyrazolo[4,3-c]pyridin-4-yl)benzyl)-5-fluoro-2-methoxybenzamide] as the molecule, how does the IC50 [1] read?
A: ≤ 1 nM

Q: And the IC50 [2]?
A: 50 to 500 nM

Q: What about the IC50 [3] of the same molecule?
A: ≤ 1 nM

Q: What about the IC50 [4] of the same molecule?
A: ≤ 5 nM

Q: What about the IC50 [5] of the same molecule?
A: ≤ 5 nM

Q: Which IC50 [1] does the source give for `COc1ccc(F)cc1C(=O)NCc1ccc(-c2ncc(-c3ccc(Cl)cn3)c3[nH]nc(N)c23)cc1` [Example 38, N-(4-(3-amino-7-(5-chloropyridin-2-yl)-1H-pyrazolo[4,3-c]pyridin-4-yl)benzyl)-5-fluoro-2-methoxybenzamide] here?
A: 1 to 5 nM

Q: And the IC50 [2]?
A: 50 to 500 nM

Q: What about the IC50 [3] of the same molecule?
A: 5 to 50 nM

Q: And the IC50 [4]?
A: ≤ 5 nM

Q: What about the IC50 [5] of the same molecule?
A: ≤ 5 nM

Q: With `COc1ccc(F)cc1C(=O)NCc1ccc(-c2ncc(-c3cnn(C)c3)c3[nH]nc(N)c23)cc1` [Example 22, N-(4-(3-amino-7-(1-methyl-1H-pyrazol-4-yl)-1H-pyrazolo[4,3-c]pyridin-4-yl)benzyl)-5-fluoro-2-oxybenzamide] as the molecule, how does the IC50 [1] read?
A: 5 to 50 nM

Q: What about the IC50 [2] of the same molecule?
A: 50 to 500 nM

Q: And the IC50 [3]?
A: 5 to 50 nM

Q: And the IC50 [4]?
A: > 50 nM

Q: And the IC50 [5]?
A: > 50 nM

Q: For `COc1ccc(F)cc1C(=O)NCc1ccc(-c2ncc(-c3nc4ccccn4n3)c3[nH]nc(N)c23)cc1` [Example 58, N-(4-(7-([1,2,4]triazolo[1,5-a]pyridin-2-yl)-3-amino-1H-pyrazolo[4,3-c]pyridin-4-yl)benzyl)-5-fluoro-2-methoxybenzamide], which IC50 [1] is on record?
A: 1 to 5 nM

Q: And the IC50 [2]?
A: 5 to 50 nM

Q: What about the IC50 [3] of the same molecule?
A: 1 to 5 nM

Q: What about the IC50 [4] of the same molecule?
A: ≤ 5 nM

Q: What about the IC50 [5] of the same molecule?
A: ≤ 5 nM
